From ChEMBL document CHEMBL1201862, “PubChem BioAssay data set” (2004)
Activity calls are given as the source filed them.

How the values were obtained:
[1] = target: T1, Microphthalmia-associated transcription factor (Homo sapiens, UniProt O75030); experiment: TRPM1 promoter luciferase signal decrease, dose response, MITF inhibitor project, cell-based, SK-MEL-5, cherry-picked, set 3 (AID 493073); type: functional
T1 sequence (O75030 whole entry): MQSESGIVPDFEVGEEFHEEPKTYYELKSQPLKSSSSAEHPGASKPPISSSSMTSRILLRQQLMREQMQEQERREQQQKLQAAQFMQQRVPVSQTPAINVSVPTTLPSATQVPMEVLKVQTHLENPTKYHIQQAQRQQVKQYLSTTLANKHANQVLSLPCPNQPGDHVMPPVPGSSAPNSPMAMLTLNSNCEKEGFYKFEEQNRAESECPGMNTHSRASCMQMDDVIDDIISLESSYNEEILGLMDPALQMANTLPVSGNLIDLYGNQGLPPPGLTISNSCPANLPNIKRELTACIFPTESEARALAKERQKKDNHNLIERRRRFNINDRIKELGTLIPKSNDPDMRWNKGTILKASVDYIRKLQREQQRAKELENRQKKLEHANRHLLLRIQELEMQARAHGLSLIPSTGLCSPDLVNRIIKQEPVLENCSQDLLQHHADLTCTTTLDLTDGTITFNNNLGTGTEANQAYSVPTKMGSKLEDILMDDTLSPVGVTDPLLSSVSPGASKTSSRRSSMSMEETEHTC

[2] = HeLa cell cytotoxicity, dose response, cytotoxicity control for MgcRacGAP inhibitor project (AID 624300); type: functional
[3] = target: T2, Rac GTPase-activating protein 1 (Homo sapiens, UniProt Q9H0H5); experiment: MgcRacGAP GTPase-activating activity inhibitors, confirmation, biochemical, ADP Hunter fluorescence, primary and confirmatory (AID 624330); type: functional
T2 sequence (Q9H0H5 whole entry): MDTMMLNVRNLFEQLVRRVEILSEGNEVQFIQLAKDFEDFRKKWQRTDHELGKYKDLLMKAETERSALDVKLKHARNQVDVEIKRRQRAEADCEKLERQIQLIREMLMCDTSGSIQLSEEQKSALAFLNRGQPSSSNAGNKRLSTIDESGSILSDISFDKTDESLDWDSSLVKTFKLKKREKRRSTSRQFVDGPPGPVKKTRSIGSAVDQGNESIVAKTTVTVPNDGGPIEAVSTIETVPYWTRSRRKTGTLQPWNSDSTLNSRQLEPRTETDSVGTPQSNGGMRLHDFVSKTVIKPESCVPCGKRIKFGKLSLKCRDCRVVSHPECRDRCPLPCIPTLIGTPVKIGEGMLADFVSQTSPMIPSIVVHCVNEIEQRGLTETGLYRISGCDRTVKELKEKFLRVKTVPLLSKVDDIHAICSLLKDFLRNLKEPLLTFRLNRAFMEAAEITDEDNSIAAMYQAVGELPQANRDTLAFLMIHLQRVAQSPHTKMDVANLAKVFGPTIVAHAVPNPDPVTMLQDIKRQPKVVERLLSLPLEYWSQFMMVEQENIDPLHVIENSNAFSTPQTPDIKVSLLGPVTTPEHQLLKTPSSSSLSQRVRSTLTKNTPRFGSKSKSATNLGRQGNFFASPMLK

[4] = inhibitors of PGC1a acetylation in cells, dose response, cell-based, cherry-picked samples (AID 720514); type: functional;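 note: potency may reflect raised or lowered acetylation signal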
[5] = inhibitors of HIV Env-driven cell fusion, dose response, cherry-pick (AID 652057); type: functional, cell-based
[6] = off-target signal loss in HeLa-CEM21 co-culture – HeLa F-luc CTL cells, cherry-picked, counter-screen for HIV-1 Env fusion inhibitor project, dose response (AID 652040); type: functional, cell-based;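 note: potency for signal decrease marking cytotoxic or nonspecific inhibition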
[7] = inhibitors of clade B AD8 Env fusion, dose response, cell-based, cherry-pick (AID 652062); type: functional;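 note: luciferase signal from cell-cell fusion driven by HIV-1 clade B AD8 Env; potency is for inhibitors of fusion seen as a drop in luminescence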
[8] = ZM109 Env clade C HIV-1 fusion inhibitors, dose response, HeLa effector, CEM target cells, luciferase, cherry-pick (AID 652058); type: functional, cell-based
[9] = inhibitors of SNCA 5'UTR-driven reporter translation, confirmation, H4 neuroglioma cells, luminescence (AID 1988); type: functional, cell-based
[10] = CEM21 lymphoblast cell cytotoxicity, dose response, cytotoxicity control for viral fusion inhibitor project, CellTiter-Glo luminescence, cherry-picked (AID 652042); type: functional, cell-based;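 note: potency for signal decrease meaning cytotoxicity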
[11] = target: T3, DNA repair protein RAD52 homolog (Homo sapiens, UniProt P43351); type: functional, biochemical
T3 sequence (P43351 whole entry): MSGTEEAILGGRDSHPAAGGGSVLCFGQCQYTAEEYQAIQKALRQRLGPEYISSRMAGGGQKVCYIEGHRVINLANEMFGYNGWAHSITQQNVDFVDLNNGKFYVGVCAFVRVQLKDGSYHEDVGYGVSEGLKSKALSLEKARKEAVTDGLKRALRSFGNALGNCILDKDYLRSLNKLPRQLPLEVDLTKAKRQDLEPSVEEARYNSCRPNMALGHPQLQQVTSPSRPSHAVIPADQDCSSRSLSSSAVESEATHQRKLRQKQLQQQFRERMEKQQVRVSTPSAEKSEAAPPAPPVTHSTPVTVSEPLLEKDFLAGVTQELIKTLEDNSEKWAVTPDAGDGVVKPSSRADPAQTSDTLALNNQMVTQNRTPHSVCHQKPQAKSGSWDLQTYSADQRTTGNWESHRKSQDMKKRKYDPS

[12] = P. falciparum Dd2 growth inhibitors, dose response, SYBR Green, cherry-picked samples (AID 1159567); type: functional, cell-based
[13] = tested on: Streptococcus sp. 'group A'; experiment: growth inhibition of control SK(-) GAS strain, dose response, counter-screen for streptokinase expression inhibitor project, luminescence, kanamycin, BacTiterGlo, confirmation (AID 1900); type: functional, organism-based
Streptokinase A = target: T4, Streptokinase A (Streptococcus pyogenes serotype M1, UniProt P10520); experiment: S. pyogenes streptokinase expression inhibitors, potency, dose response, plasminogen activation absorbance, OD405 (AID 1914); type: functional, Streptococcus pyogenes M1 GAS;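 note: secreted streptokinase activity via plasminogen activation per viability signal from cell pellet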
T4 sequence (P10520 whole entry): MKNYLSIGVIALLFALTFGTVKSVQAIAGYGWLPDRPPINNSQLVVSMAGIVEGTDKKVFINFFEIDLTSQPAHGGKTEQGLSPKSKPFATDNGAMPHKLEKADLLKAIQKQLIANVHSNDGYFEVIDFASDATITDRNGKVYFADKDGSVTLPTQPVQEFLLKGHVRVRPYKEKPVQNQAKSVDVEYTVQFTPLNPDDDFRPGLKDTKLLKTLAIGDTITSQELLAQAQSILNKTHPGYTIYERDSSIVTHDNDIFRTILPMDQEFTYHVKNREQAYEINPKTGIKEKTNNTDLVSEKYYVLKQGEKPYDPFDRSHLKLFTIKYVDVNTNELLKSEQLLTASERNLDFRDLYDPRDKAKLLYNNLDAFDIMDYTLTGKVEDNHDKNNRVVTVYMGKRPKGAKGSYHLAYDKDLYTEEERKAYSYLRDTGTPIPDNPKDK

[14] = Counterscreen for inhibitors of Trypanosoma brucei methionyl tRNA synthetase (MetRS): Luminescence-based cell-based high throughput dose response assay to identify compounds that are cytotoxic to Jurkat human T lymphocyte cells.; type: functional
Streptococcus = experiment: Group A Streptococcus viability loss, dose response, counter-screen for streptokinase expression inhibitor project, luminescence, BacTiterGlo (AID 1915); type: functional, organism-based;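 note: potency for reduction of bacterial viability or growth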
[15] = target: T5, Methionyl-tRNA synthetase, putative (Trypanosoma brucei brucei, UniProt Q38C91); type: functional, Trypanosoma brucei brucei strain 927/4 GUTat10.1
T5 sequence (Q38C91 whole entry): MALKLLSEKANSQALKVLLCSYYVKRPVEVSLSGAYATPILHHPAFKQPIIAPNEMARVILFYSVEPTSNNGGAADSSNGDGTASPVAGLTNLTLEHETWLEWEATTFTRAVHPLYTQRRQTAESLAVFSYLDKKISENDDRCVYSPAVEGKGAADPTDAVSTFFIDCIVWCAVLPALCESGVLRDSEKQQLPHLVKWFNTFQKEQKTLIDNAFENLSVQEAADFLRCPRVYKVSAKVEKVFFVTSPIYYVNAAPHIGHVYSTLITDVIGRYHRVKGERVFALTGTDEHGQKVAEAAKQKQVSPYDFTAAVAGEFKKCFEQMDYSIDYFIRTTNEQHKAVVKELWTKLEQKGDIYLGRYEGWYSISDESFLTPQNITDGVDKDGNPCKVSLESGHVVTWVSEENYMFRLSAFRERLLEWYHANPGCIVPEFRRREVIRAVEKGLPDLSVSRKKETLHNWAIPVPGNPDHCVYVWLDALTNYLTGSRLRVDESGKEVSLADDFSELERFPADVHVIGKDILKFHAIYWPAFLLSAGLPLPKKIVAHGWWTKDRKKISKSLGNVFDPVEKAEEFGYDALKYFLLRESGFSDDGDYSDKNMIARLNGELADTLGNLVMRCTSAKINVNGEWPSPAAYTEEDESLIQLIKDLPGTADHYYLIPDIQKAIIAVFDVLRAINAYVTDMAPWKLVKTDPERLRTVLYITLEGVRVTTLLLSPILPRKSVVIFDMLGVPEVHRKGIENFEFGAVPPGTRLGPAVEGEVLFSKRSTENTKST

[16] = target: T5, Methionyl-tRNA synthetase, putative; type: functional, Trypanosoma brucei brucei strain 927/4 GUTat10.1; remark: listed apart in the source
[17] = target: FAD-linked sulfhydryl oxidase ALR (Homo sapiens, UniProt P55789); experiment: inhibitors of human ALR sulfhydryl oxidase, dose response, biochemical, H2O2 detection, luminescence, cherry-pick (AID 493248)
Sequence of FAD-linked sulfhydryl oxidase ALR (P55789 whole entry): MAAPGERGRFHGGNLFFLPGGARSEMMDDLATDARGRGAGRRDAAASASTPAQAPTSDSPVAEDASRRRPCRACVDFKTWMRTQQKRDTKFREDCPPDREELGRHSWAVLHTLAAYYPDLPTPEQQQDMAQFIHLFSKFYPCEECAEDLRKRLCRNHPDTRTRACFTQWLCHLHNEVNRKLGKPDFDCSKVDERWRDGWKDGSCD

[18] = inhibitors of intracellular T. cruzi replication, confirmation, NIH3T3 host cells, beta-gal luminescence (AID 2044); type: functional, cell-based;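 note: intracellular parasites grown in NIH/3T3 mouse fibroblasts as host cells; luminescent beta-galactosidase reporter signal from transgenic T. cruzi replicating inside host cells; inhibitors lower the luminescence signal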
[19] = cytotoxicity toward NIH3T3 fibroblasts, dose response, counter-screen, cell-based, ATP luminescence, mouse fibroblasts (AID 2010); type: functional;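 note: cells exposed to compound for about 90 hours before reading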

O=C1/C(=C/c2ccccc2[N+](=O)[O-])COc2ccccc21
AC50 [1]: 9.8 µM (active) | CC50 [2]: 100 µM (active) | IC50 [3]: 101 µM (active) | AC50 [4]: 4.77 µM (active)

O=C1CCCc2c1[nH]c1ccc(Cl)cc21
AC50 [5]: 3.39 µM (active) | AC50 [6]: < 0.26 µM (active) | AC50 [7]: 6.38 µM (active) | AC50 [8]: 15 µM (active) | EC50 [9]: 9.1 µM (active)

C[C@H]1CN([C@@H](C)CO)C(=O)Cc2cc(NC(=O)Nc3ccc4c(c3)OCO4)ccc2O[C@H]1CN(C)S(=O)(=O)c1ccccc1
AC50 [5]: 0.991 µM (active) | AC50 [7]: 7.28 µM (active) | AC50 [8]: 0.739 µM (active) | AC50 [10]: 37.3 µM (active)

C[C@H]1CN([C@@H](C)CO)C(=O)Cc2cc(NC(=O)Nc3ccc4c(c3)OCO4)ccc2O[C@H]1CN(C)S(=O)(=O)c1cccs1
AC50 [5]: 1.93 µM (active) | AC50 [7]: 22.3 µM (active) | AC50 [10]: 49.9 µM (active)

CC(=O)Nc1cccc(Oc2nc(NCCN(C)C)nc3ccsc23)c1
AC50 [11]: 11.1 µM (active)

N#Cc1cccc(-c2ccc([C@@H]3[C@@H]4CN(S(=O)(=O)c5ccc(-c6ccccc6)cc5)C[C@H]3N4)cc2)c1
AC50 [4]: 1.82 µM (active)

N#Cc1ccc(-c2ccc([C@@H]3[C@@H]4CN(S(=O)(=O)c5ccc(F)cc5)C[C@H]3N4)cc2)cc1
AC50 [12]: 4.69 µM (active) | AC50 [4]: 1.57 µM (active)

C/C(=N\Nc1nc2ccccc2[nH]1)c1ccc2c(c1)OCO2
EC50 [13]: 13.3 µM (active) | EC50 (Streptokinase A): > 150 µM (not active) | IC50 [14]: 48.4 µM (inactive) | EC50 (Streptococcus): > 150 µM (not active) | IC50 [15]: 119 µM (inactive) | IC50 [16]: 28.2 µM (inactive) | AC50 [17]: 0.116 µM (active) | EC50 [18]: 1.37 µM (active) | EC50 [19]: > 60 µM (not active)

CC(C)(C)n1nc(Cc2cccc3ccccc23)c2c(N)ncnc21
AC50 [5]: 7.07 µM (active) | AC50 [6]: 31.1 µM (active) | AC50 [7]: 34.5 µM (active) | AC50 [10]: 46.8 µM (active)
